Assay results from patent US20260115191A1, “Nilotinib Compositions with Enhanced Solubility” (Neoform Biopharmaceutical Limited, priority 2020, published 2026).
Structures can show the parent of a compound that is named as a salt.

Test: In-vivo testing: plasma pharmacokinetics after single oral gavage of suspension in rats
Conditions: Sprague-Dawley, rat, 10 mg/kg

AUC(0-t): 2910 ng·h/mL
Cmax: 493 ng/mL
Tmax: 2 h
SMILES: Cc1cn(-c2cc(NC(=O)c3ccc(C)c(Nc4nccc(-c5cccnc5)n4)c3)cc(C(F)(F)F)c2)cn1 [Nilotinib HCl monohydrate, 4-methyl-N-[3-(4-methylimidazol-1-yl)-5-(trifluoromethyl)phenyl]-3-[(4-pyridin-3-ylpyrimidin-2-yl)amino]benzamide]
